Data taken from patent US20120184590A1, “FORMULATIONS OF INDOLE-3-CARBINOL DERIVED ANTITUMOR AGENTS WITH INCREASED ORAL BIOAVAILABILITY” (UNIVERSITY OF KANSAS, priority 2009, published 2012).
Where “and” joins values, the source holds several entries; their conditions need not be identical. Identical values can stand only once. Entries after “also recorded” stand apart in the source; their conditions may differ. Like-named read-outs stand apart in the source and are kept apart here. Marks after values point to notes of the source that are not given here.

Experiments:
[1] = Pharmacokinetics of SR13668 in monkeys after i.v. and oral gavage dosing; format: in vivo, cynomolgus monkeys (macaca fasicularis); conditions: for Fabs F/(1-ER): blood; for Vd/F: read-out: VZ/F
Excerpt: Four non-naïve male beagle dogs (approximately 3 years of age; Ridglan Farms Inc. Mt. Horeb, Wis.) and four non-naïve male cynomolgus monkeys [cynos (macaca fasicularis); approximately 7 to 8 years of age; Charles River Laboratories, Inc., Houston, Tex.] were used in this study. Prior to experimental initiation for the present study, the attending veterinarian certified that the animals were healthy and free from disease and parasites.
For both species, each animal was part of each experimental group, with a 7-day interval between treatments to allow for washout of the dosing formulation and its effects. Dosing formulations of SR13668 were administered by oral gavage (intragastric) or intravenous (i.v.) injection as a single dose or once daily for seven consecutive days. Oral to doses were administered at a dosing volume of 5 mL/kg of body weight, while intravenous doses were administered at a dosing volume of 0.5 mL/kg of body weight. Dogs were dosed with 93.6 mg/m^2 SR13668 intravenously in DMSO:PEG300 15:85 (v/v) or orally in Solutol® vehicle (two groups, fed and after an overnight fast). Monkeys were dosed with 84.2 mg/m^2 SR13668 intravenously in DMSO:PEG300 15:85 (v/v) or orally (336.7 mg/m^2 SR13668 for the oral high dose group) in PEG400:Labrasol® 1:1 (v/v) or Solutol® vehicles. Vehicle control groups were used to assess the tolerability of the vehicle and for clinical pathology evaluations.
Blood samples were collected from each animal at 10 time points (0, 0.25, 0.5, 1, 2, 4, 6, 8, 12 and 24 hours post-dose) during the first and last 24-hour segment of each dosing regimen. For single intravenous dose experiments, samples were collected during the 24-hour post-dose period only. Samples were transferred to Vacutainer tubes containing ethylenediaminetetraacetic acid (EDTA; Fisher Scientific, Pittsburgh, Pa.). The tubes were inverted several times to mix and then placed on ice until storage or centrifugation for plasma preparation. After centrifugation, the plasma was transferred into storage tubes (0.5 mL), which were placed on dry ice and then stored frozen (approximately −70° C.).
Levels of SR13668 in plasma and blood were measured using a tandem mass to spectrometer (API 3000; Applied Biosystems/MDS Sciex, Foster City, Calif.) equipped with a high performance liquid chromatograph (Agilent 1200; Agilent Technologies, Wilmington, Del.). For SR13668 determination, a 100 μL blood or plasma aliquot was mixed with 1 mL of acetonitrile (ACN; Sigma-Aldrich, St. Louis, Mo.). After vortex-mixing for one minute, the sample was centrifuged at 4° C. and 7000 RPM for 10 minutes to remove precipitated proteins, and the supernatant was transferred to a clean tube and dried under nitrogen flow at room temperature (approximately 25° C.). After the evaporation was completed, the residue was reconstituted in 500 μL of ACN/water (v/v 70:30), and vortex-mixed and centrifuged again. An aliquot of the resulting supernatant was transferred to an autosampler tube for instrumental analysis.
A freshly prepared SR13668 standard curve was analyzed along with samples on each day of analysis. The chromatographic column was a Luna 3μ C18(2) 110 Å 30×2.0 mm (Phenomenex, Torrance, Calif.). The column temperature was maintained at 25° C., and a flow rate of 0.30 mL/min was used. The mobile phase consisted of MPA: formic acid in water (0.05%, v/v) and MPB: formic acid in ACN (0.05%, v/v). The mobile phase gradient was as follows: after injection, initial conditions with MPA at 40% were held for 0.01 min, decreased to 5% and held constant for 3 min, returning to initial conditions for another 3 min of re-equilibration time. Retention time of SR13668 was approximately 2.4 min. Total run time was 6 min. A turbo ion spray interface was used as the ion source operating in negative ion mode. Acquisition was performed in multiple reaction monitoring mode using ions 429.15 (Q1) and 414.12 (Q3) Dalton. […]

[2] = Oral bioavailability of PEG400:Labrasol formulation in dogs (earlier finding); conditions: dog, in vivo
[3] = male, cynomolgus monkey, plasma, iv, 7.02 mg/kg, plasma, 84.2 mg/m^2 (7.02 mg/kg) i.v. single dose, DMSO:PEG300 15:85 v/v, fed
[4] = male, cynomolgus monkey, plasma, po, 7.02 mg/kg, 84.2 mg/m^2 (7.02 mg/kg) oral gavage, Solutol, seventh daily dose, fed
[5] = male, cynomolgus monkey, plasma, po, 7.02 mg/kg, plasma, 84.2 mg/m^2 (7.02 mg/kg) oral gavage, PEG400:Labrasol 1:1 v/v, seventh daily dose, fed
[6] = male, cynomolgus monkey, plasma, po, 28.06 mg/kg, plasma, 336.7 mg/m^2 (28.06 mg/kg) oral gavage, PEG400:Labrasol 1:1 v/v, seventh daily dose, fed
[7] = male, cynomolgus monkey, whole blood, iv, 7.02 mg/kg, whole blood, 84.2 mg/m^2 (7.02 mg/kg) iv single dose, DMSO:PEG300 15:85 v/v, fed
[8] = male, cynomolgus monkey, whole blood, po, 7.02 mg/kg, 84.2 mg/m^2 (7.02 mg/kg) oral gavage, Solutol, seventh daily dose, fed
[9] = male, cynomolgus monkey, whole blood, po, 7.02 mg/kg, whole blood, 84.2 mg/m^2 (7.02 mg/kg) oral gavage, PEG400:Labrasol 1:1 v/v, seventh daily dose, fed
[10] = male, cynomolgus monkey, whole blood, po, 28.06 mg/kg, whole blood, 336.7 mg/m^2 (28.06 mg/kg) oral gavage, PEG400:Labrasol 1:1 v/v, seventh daily dose, fed
[11] = male, cynomolgus, cynomolgus monkey, plasma, iv, 7.02 mg/kg, plasma, 84.2 mg/m^2 (7.02 mg/kg) i.v. single dose, DMSO:PEG300 15:85 v/v, fed
[12] = male, cynomolgus, cynomolgus monkey, plasma, po, 7.02 mg/kg, plasma, 84.2 mg/m^2 (7.02 mg/kg) oral gavage, PEG400:Labrasol 1:1 v/v, seventh daily dose, fed
[13] = plasma, 84.2 mg/m^2 (7.02 mg/kg) i.v. single dose, DMSO:PEG300 15:85 v/v, fed
[14] = whole blood, 84.2 mg/m^2 (7.02 mg/kg) iv single dose, DMSO:PEG300 15:85 v/v, fed

## CCOC(=O)c1ccc2[nH]c3c(OC)c4[nH]c5ccc(C(=O)OCC)cc5c4cc3c2c1 [SR13668, 2,10-dicarbethoxy-6-methoxy-5,7-dihydro-indolo-(2,3-b)carbazole]
[1]; PEG400:Labrasol, 84.2 vs 336.7 mg/m^2
  effect of fourfold dose increase on oral bioavailability: about a fourfold decrease in the bioavailability; also recorded: lower oral bioavailability
[1]; blood clearance, 84.2 mg/m^2 (7.02 mg/kg) oral gavage, PEG400:Labrasol 1:1 v/v, fed
  CL: 121 mL/min/kg
[1]; blood clearance, 84.2 mg/m^2 (7.02 mg/kg) oral gavage, Solutol, fed
  CL: 47.7 mL/min/kg
[1]; blood clearance, 336.7 mg/m^2 (28.06 mg/kg) oral gavage, PEG400:Labrasol 1:1 v/v, fed
  CL: 332 mL/min/kg
[1]; 84.2 mg/m^2 (7.02 mg/kg) oral gavage, PEG400:Labrasol 1:1 v/v, fed
  Fabs F/(1-ER): 4.1%
[1]; 84.2 mg/m^2 (7.02 mg/kg) oral gavage, Solutol, fed
  Fabs F/(1-ER): 9.1%
[1]; 336.7 mg/m^2 (28.06 mg/kg) oral gavage, PEG400:Labrasol 1:1 v/v, fed
  Fabs F/(1-ER): 1.2%
[1]; iv blood clearance over hepatic blood flow 43.6 mL/min/kg
  ER CLiv/Q: 0.083
[1]; [3]
  AUC(0-inf): 13300 ± 4920 ng·h/mL
  Cmax: 6090 ± 1080 ng/mL
  MRT: 6.9 ± 1.1 h
[1]; [4]
  AUC(0-inf): 837 ± 144 ng·h/mL
  Cmax: 71.4 ± 16 ng/mL
  MRT: 12.8 ± 2.1 h
  Tmax: 8 ± 3.3 h
[1]; [5]
  AUC(0-inf): 437 ± 312 ng·h/mL
  Cmax: 40.5 ± 38 ng/mL
  MRT: 11.6 ± 1.3 h
  Vd/F: 203 ± 130 L/kg
[1]; male, cynomolgus monkey, plasma, po, 7.02 mg/kg, plasma, 84.2 mg/m^2 (7.02 mg/kg) oral gavage, PEG400:Labrasol 1:1 v/v, seventh daily dose, fed, read-out: CL/F (converted)
  CL/F: 372 mL/min/kg
[1]; male, cynomolgus monkey, plasma, po, 7.02 mg/kg, plasma, 84.2 mg/m^2 (7.02 mg/kg) oral gavage, Solutol, seventh daily dose, fed, read-out: CL/F (converted)
  CL/F: 143 mL/min/kg
[1]; male, cynomolgus monkey, plasma, po, 7.02 mg/kg, plasma, 84.2 mg/m^2 (7.02 mg/kg) oral gavage, Solutol, seventh daily dose, fed
  Vd/F: 90.5 ± 9.9 L/kg
[1]; [6]
  AUC(0-inf): 367 ± 154 ng·h/mL
  Cmax: 43.7 ± 9.2 ng/mL
  MRT: 9.1 ± 2.4 h
  Tmax: 3.5 ± 1.9 h
  Vd/F: 603 ± 236 L/kg
[1]; male, cynomolgus monkey, plasma, po, 28.06 mg/kg, plasma, 336.7 mg/m^2 (28.06 mg/kg) oral gavage, PEG400:Labrasol 1:1 v/v, seventh daily dose, fed, read-out: CL/F (converted)
  CL/F: 1440 mL/min/kg
[1]; [7]
  AUC(0-inf): 35400 ± 12400 ng·h/mL
  Cmax: 11100 ± 776 ng/mL
  MRT: 9 ± 2.2 h
  Tmax: 0.25 h
  half-life: 516 ± 102 min
[1]; [8]
  AUC(0-inf): 2490 ± 377 ng·h/mL
  Cmax: 227 ± 56 ng/mL
  MRT: 13.3 ± 1.1 h
  Tmax: 6.5 ± 3.8 h
  half-life: 462 ± 36 min
[1]; [9]
  AUC(0-inf): 1560 ± 1330 ng·h/mL
  Cmax: 129 ± 140 ng/mL
  MRT: 11.5 ± 1.2 h
  Tmax: 7 ± 0.35 h
  half-life: 348 ± 54 min
  Vd/F: 61.4 ± 44 L/kg
[1]; male, cynomolgus monkey, whole blood, po, 7.02 mg/kg, whole blood, 84.2 mg/m^2 (7.02 mg/kg) oral gavage, PEG400:Labrasol 1:1 v/v, seventh daily dose, fed, read-out: CL/F (converted)
  CL/F: 121 mL/min/kg
[1]; male, cynomolgus monkey, whole blood, po, 7.02 mg/kg, whole blood, 84.2 mg/m^2 (7.02 mg/kg) oral gavage, Solutol, seventh daily dose, fed, read-out: CL/F (converted)
  CL/F: 47.7 mL/min/kg
[1]; male, cynomolgus monkey, whole blood, po, 7.02 mg/kg, whole blood, 84.2 mg/m^2 (7.02 mg/kg) oral gavage, Solutol, seventh daily dose, fed
  Vd/F: 31.6 ± 5 L/kg
[1]; [10]
  AUC(0-inf): 1520 ± 445 ng·h/mL
  Cmax: 168 ± 35 ng/mL
  MRT: 10.9 ± 2.2 h
  Tmax: 3.5 ± 1.9 h
  half-life: 408 ± 72 min
  Vd/F: 195 ± 73 L/kg
[1]; male, cynomolgus monkey, whole blood, po, 28.06 mg/kg, whole blood, 336.7 mg/m^2 (28.06 mg/kg) oral gavage, PEG400:Labrasol 1:1 v/v, seventh daily dose, fed, read-out: CL/F (converted)
  CL/F: 332 mL/min/kg
[1]; [11]
  Tmax: 0.25 h
  half-life: 456 ± 48 min
[1]; male, cynomolgus, cynomolgus monkey, plasma, po, 7.02 mg/kg, 84.2 mg/m^2 (7.02 mg/kg) oral gavage, Solutol, seventh daily dose, fed
  half-life: 444 ± 42 min
[1]; [12]
  Tmax: 5 ± 1.2 h
  half-life: 360 ± 78 min
[1]; male, cynomolgus, cynomolgus monkey, plasma, po, 28.06 mg/kg, plasma, 336.7 mg/m^2 (28.06 mg/kg) oral gavage, PEG400:Labrasol 1:1 v/v, seventh daily dose, fed
  half-life: 300 ± 72 min
[1]; male, cynomolgus, cynomolgus monkey, whole blood, blood clearance, 84.2 mg/m^2 (7.02 mg/kg) iv, DMSO:PEG300 15:85 v/v, fed
  clearance: 3.63 mL/min/kg
[1]; [13]
  CL/F: 0.580 ± 0.20^c,d L/hr/kg
  F0-∞: 100%
[1]; plasma, 84.2 mg/m^2 (7.02 mg/kg) oral gavage, PEG400:Labrasol 1:1 v/v, seventh daily dose, fed
  F0-∞: 3.3 ± 2.0^f %
[1]; plasma, 84.2 mg/m^2 (7.02 mg/kg) oral gavage, Solutol, seventh daily dose, fed
  F0-∞: 7.3 ± 2.9^i %
[1]; plasma, 336.7 mg/m^2 (28.06 mg/kg) oral gavage, PEG400:Labrasol 1:1 v/v, seventh daily dose, fed
  F0-∞: 0.72 ± 0.28^i %
[1]; [14]
  CL/F: 0.218 ± 0.078^c,d,h L/hr/kg
  F0-∞: 100%
[1]; whole blood, 84.2 mg/m^2 (7.02 mg/kg) oral gavage, PEG400:Labrasol 1:1 v/v, seventh daily dose, fed
  F0-∞: 3.8 ± 3.1^e,h % and 3.8%
[1]; whole blood, 84.2 mg/m^2 (7.02 mg/kg) oral gavage, Solutol, seventh daily dose, fed
  F0-∞: 8.3 ± 3.1^e,h,i % and 8.3%
[1]; whole blood, 336.7 mg/m^2 (28.06 mg/kg) oral gavage, PEG400:Labrasol 1:1 v/v, seventh daily dose, fed
  F0-∞: 1.1 ± 0.44^h % and 1.1%
[2]
  bioavailability: < 1%
